Data from PMC12051030, “Identification of inhibitors of the Salmonella FraB deglycase, a drug target” (FEBS Open Bio, 2025).

Experiments:
[1] = system: dCTP pyrophosphatase 1; design: method as in PMID 28145708; conditions: bioassay records in PubChem; cited from earlier work
[2] = target: FraB (Salmonella enterica subsp. enterica serovar Typhimurium, UniProt Q8ZLD0); experiment: Native MS of FraB–inhibitor complexes; type: binding; conditions: for binding to FraB by native MS (species observed): IST 50 V, E2I/E2I2 = FraB dimer bound to one or two inhibitor copies; for type of FraB–inhibitor interaction (covalent vs noncovalent): decrease in E2I and E2I2 with increasing IST voltage
FraB, sequence (Q8ZLD0 entry or part of it): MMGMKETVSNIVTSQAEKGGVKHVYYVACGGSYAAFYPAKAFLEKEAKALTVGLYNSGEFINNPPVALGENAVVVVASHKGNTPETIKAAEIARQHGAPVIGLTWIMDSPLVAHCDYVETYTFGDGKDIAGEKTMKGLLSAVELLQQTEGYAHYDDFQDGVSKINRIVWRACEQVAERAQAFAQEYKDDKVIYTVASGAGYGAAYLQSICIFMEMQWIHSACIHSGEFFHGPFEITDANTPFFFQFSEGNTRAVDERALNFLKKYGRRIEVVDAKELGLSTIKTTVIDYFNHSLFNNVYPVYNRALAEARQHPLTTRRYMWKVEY
Experimental: For MS analysis, FraB was buffer exchanged into 200 mM ammonium acetate (AmAc) (Sigma‐Aldrich) or 66.7 mM ethylenediaminediacetic acid (EDDA) (Sigma‐Aldrich) using micro Bio‐spin P6 spin columns (Bio‐Rad); AmAc and EDDA concentrations were chosen to ensure the same ionic strength. The pH was adjusted to 7.5 by adding ammonium hydroxide solution (Sigma‐Aldrich). 6‐P‐F‐Asp was diluted with water, while three different inhibitors [3470:A09, 3469:F02, and 3469:N17, all purchased from either ChemDiv (San Diego, CA, USA) or Ambinter (Orléans, France)] were diluted in DMSO. The final concentration of DMSO used in the native MS experiments was 4.8% (v/v) or 1% (v/v) for the compounds obtained from ChemDiv or Ambinter, respectively.
For the characterization of FraB–inhibitor complexes, the protein was diluted into 200 mM AmAc and then mixed with inhibitors to final concentrations of 3 μM FraB and 120 μM inhibitor. After adding the inhibitors, the FraB–inhibitor complex was incubated for 20 min at 20 °C before injecting into the mass spectrometry (MS). For the characterization of FraB–inhibitor–substrate complexes, FraB was diluted into 66.7 mM EDDA, mixed with inhibitors, incubated at 20 °C for 20 min, and subsequently mixed with 6‐P‐F‐Asp. The final concentrations were as follows: 3 μM FraB (monomer concentration), 120 μM inhibitor, and 600 μM 6‐P‐F‐Asp.
Native MS experiments were performed on Thermo Q Exactive ultra high mass range (UHMR) Orbitrap. Samples were introduced into the MS instrument by nano‐electrospray ionization, which using glass capillary tips pulled in‐house using a P‐97 micropipette puller (Sutter Instruments, Novato, CA, USA). Each sample (3–5 μL) was loaded into the tips, and the electrospray voltage was set between 0.6 and 1.0 kV. The mass spectrometer was operated in positive mode using the following tuning settings: Capillary temperature: 200 °C detector optimization: low m/z; ion transfer target: high m/z; in‐source trapping (IST): 50 V, except when applying higher IST to disrupt the FraB–inhibitor interactions; HCD trap gas flow: 5; Resolution: 12 500. Mass spectra were collected after the spray stabilized (typically < 5 min) and then examined using XCalibur 4.1 (Thermo Scientific), and deconvolved using UniDec software.

[3] = system: deubiquitinase USP30; design: method as in PMID 28145708; conditions: bioassay records in PubChem; cited from earlier work
[4] = system: deubiquitinase USP17; design: method as in PMID 28145708; conditions: bioassay records in PubChem; cited from earlier work
[5] = system: deubiquitinase USP28; design: method as in PMID 28145708; conditions: bioassay records in PubChem; cited from earlier work

Fc1ccc(-c2nn3c(-c4ccccn4)nnc3s2)cc1 [3469:N17, 6‐(4‐fluorophenyl)‐3‐pyridin‐2‐yl‐[1,2,4]triazolo[3,4‐b][1,3,4]thiadiazole]
inhibition of dCTP pyrophosphatase 1 [1]: reported to inhibit | binding to FraB in the presence of substrate (native MS) ([2]; 3 μM FraB, 120 μM inhibitor, 600 μM 6‐P‐F‐Asp): can bind either free enzyme or the enzyme‐substrate complex | binding to FraB by native MS (species observed) ([2]; 3 μM FraB, 120 μM inhibitor): distinct peaks corresponding to E2I and E2I2 | type of FraB–inhibitor interaction (covalent vs noncovalent) [2]: noncovalent

CC(C)Cc1cc(-c2nn3c(-c4ccccc4Cl)nnc3s2)n[nH]1 [3470:A09, 3‐(2‐chlorophenyl)‐6‐[5‐(2‐methylpropyl)‐1H‐pyrazol‐3‐yl]‐[1,2,4]triazolo[3,4‐b][1,3,4]thiadiazole]
inhibition of USP30 [3]: found to inhibit | inhibition of USP17 [4]: found to inhibit | inhibition of USP28 [5]: found to inhibit | binding to FraB by native MS (species observed) ([2]; 3 μM FraB, 120 μM inhibitor): distinct peaks corresponding to E2I and E2I2 | type of FraB–inhibitor interaction (covalent vs noncovalent) [2]: noncovalent

c1ccc(-c2nnc3sc(C4COc5ccccc5O4)nn23)nc1 (centres unmarked) [3469:F02, 6‐(2,3‐dihydro‐1,4‐benzodioxin‐3‐yl)‐3‐pyridin‐2‐yl‐[1,2,4]triazolo[3,4‐b][1,3,4]thiadiazole]
binding to FraB by native MS (species observed) ([2]; 3 μM FraB, 120 μM inhibitor): distinct peaks corresponding to E2I and E2I2 | type of FraB–inhibitor interaction (covalent vs noncovalent) [2]: noncovalent
